Experiment: Cytotoxicity against human HL60 cells after 24 hrs by MTT assay
Type: functional, cell-based
Settings: HL-60, 24 h

CCCCCCCCCC(=O)C[C@H](O)C[C@@H]1CC=CC(=O)O1
IC50: 1.2 µM

CCCCCCCCCC(=O)C[C@@H](O)C[C@@H]1CC=CC(=O)O1
IC50: 5.3 µM

CCCCCCCCCCCC(=O)C[C@H](O)C[C@@H]1CC=CC(=O)O1
IC50: 0.97 µM

CCCCCCCCCCCC(=O)C[C@@H](O)C[C@@H]1CC=CC(=O)O1
IC50: 4.9 µM

COc1cccc2c1C(=O)c1c(O)c3c(c(O)c1C2=O)C[C@@](O)(C(=O)CO)C[C@@H]3O[C@H]1C[C@H](N)[C@H](O)[C@H](C)O1 [DOXORUBICIN]
IC50: 0.14 µM

Reference: ChEMBL document CHEMBL3351660, “Isolation and total syntheses of cytotoxic cryptolactones A1, A2, B1, and B2: α,β-unsaturated δ-lactones from a Cryptomyzus sp. aphid” (J Nat Prod, 2014)
